Columns and labels:
PC-12 cells = assay: Cell death protective effect in adrenal cells against Erastin, glutamate and RSL3 (LDH); assay type: cell-based, rat; conditions: 24 hours
Procedure: In order to identify the protective effect on adrenal cells, PC-12 cells were divided into 96-well plates by 1×10^4 and cultured for 18 to 24 hours. The compounds of Examples were diluted to final concentrations of 0.1 and 1.0 μM in Erastin, 0.01 and 0.1 in glutamate, and 0.3 and 3.0 μM in RSL3, treated in each well, and incubated for 15 to 20 minutes. Erastin, glutamate, and RSL3 were treated to have final concentrations of 1 μM, 10 mM, and 0.3 μM, respectively, and cultured for 24 hours. In order to identify the protective effect of each compound, the degree of LDH extracellular secretion was measured using cytotoxicity LDH assay kit [Dojindo; CK12]. Briefly, at the time when the treatment of the cells with Erastin, glutamate, and RSL3 for 24 hours is completed, the supernatants containing the cells are taken by 70 μL and transferred to a new 96-well plate. The assay buffer included in the kit is added in an amount of 70 μL/well (the same amount as the sample) thereto, and then the plate is wrapped with a foil and the reaction is performed at room temperature for 15 minutes. After observing the changed color of the sample, the stop solution was added in an amount of 35 µL/well thereto, and then the 0 inhibition value was calculated by measuring the absorbance value at a wavelength of 490 nm using an iD3 spectrophotometer.

ARPE-19 cells = assay: Cell death protective effect in retinal epithelial cells against Erastin and RSL3 (LDH); assay type: cell-based, human; conditions: 24 hours
Procedure: In order to identify the protective effect on retinal epithelial cells, ARPE-19 cells were divided into 96-well plates by 1×10^4 and cultured for 18 to 24 hours. The compounds of Examples were diluted to final concentrations of 0.03 and 0.3 μM, treated in each well, and incubated for 20 minutes. Erastin, and RSL3 were treated to have final concentrations of 10 μM, and 0.3 μM, respectively, and cultured for 24 hours. In order to identify the protective effect of each compound, the degree of LDH extracellular secretion was measured using cytotoxicity LDH assay kit [Dojindo; CK12]. Briefly, at the time when the treatment of the cells with Erastin, and RSL3 for 24 hours is completed, the supernatants containing the cells are taken by 70 μL and transferred to a new 96-well plate. The assay buffer included in the kit is added in an amount of 70 μL/well (the same amount as the sample) thereto, and then the plate is wrapped with a foil and the reaction is performed at room temperature for 15 minutes.

[1] = PC-12, Erastin 1 μM, compound 0.1 μM
[2] = PC-12, Erastin 1 μM, compound 1.0 μM
[3] = PC-12, Glutamate 10 mM, compound 0.01 μM
[4] = PC-12, Glutamate 10 mM, compound 0.1 μM
[5] = PC-12, RSL3 0.3 μM, compound 0.3 μM
[6] = PC-12, RSL3 0.3 μM, compound 3.0 μM
[7] = ARPE-19, Erastin 10 μM, compound 0.03 μM
[8] = ARPE-19, Erastin 10 μM, compound 0.3 μM
[9] = ARPE-19, RSL3 0.3 μM, compound 0.03 μM
[10] = ARPE-19, RSL3 0.3 μM, compound 0.3 μM

| SMILES | inhibition (%) (PC-12 cells; [1]) | inhibition (%) (PC-12 cells; [2]) | inhibition (%) (PC-12 cells; [3]) | inhibition (%) (PC-12 cells; [4]) | inhibition (%) (PC-12 cells; [5]) | inhibition (%) (PC-12 cells; [6]) | inhibition (%) (ARPE-19 cells; [7]) | inhibition (%) (ARPE-19 cells; [8]) | inhibition (%) (ARPE-19 cells; [9]) | inhibition (%) (ARPE-19 cells; [10]) |
| --- | --- | --- | --- | --- | --- | --- | --- | --- | --- | --- |
| COCCOCc1cc(NC2CCOCC2)c2[nH]c(-c3ccccc3)cc2c1 [Example 1, 5-(2-methoxyethoxymethyl)-2-phenyl-N-tetrahydropyran-4-yl-1H-indol-7-amine] | 100 | 100 | 53 | 98 | 100 | 100 | 100 | 100 | 95 | 100 |
| COCCOCc1cc(NCC2CCOCC2)c2[nH]c(-c3ccccc3)cc2c1 [Example 4, 5-2(methoxyethoxymethyl)-2-phenyl-N-(tetrahydropyran-4-ylmethyl)-1H-indol-7-amine] | 100 | 100 | 53 | 96 | 100 | 100 | 100 | 100 | 100 | 100 |
| COCCOCc1cc(NC2CCN(C(C)=O)CC2)c2[nH]c(-c3ccccc3)cc2c1 [Example 30, 1-[4-[[5-(2-methoxyethoxymethyl)-2-phenyl-1H-indol-7-yl]amino]piperidyl]-1-ethanone] | 86 | 100 | 33 | 95 | 100 | 100 | 80 | 100 | 60 | 100 |
| CCOCCOCc1cc(NC2CCCC2)c2[nH]c(-c3ccccc3)cc2c1 [Example 36, N-cyclopentyl-5-(2-ethoxyethoxymethyl)-2-phenyl-1H-indol-7-amine] | 100 | 100 | 61 | 95 | 100 | 100 | 98 | 100 | 100 | 100 |
| COCCOCCOCc1cc(NC2CCCC2)c2[nH]c(-c3ccccc3)cc2c1 [Example 39, N-cyclopentyl-5-[2-(2-methoxyethoxy)ethoxymethyl]-2-phenyl-1H-indol-7-amine] | 100 | 100 | 52 | 97 | 100 | 100 | 100 | 100 | 100 | 100 |
| COCCOCc1cc(NCc2ccncc2)c2[nH]c(-c3ccccc3)cc2c1 [Example 45, 5-(2-methoxyethoxymethyl)-2-phenyl-N-(4-pyridylmethyl)-1H-indol-7-amine] | 100 | 100 | 57 | 100 | 100 | 100 | 100 | 100 | 100 | 100 |
| COCCOCc1cc(NC2CCOCC2)c2[nH]cc(C)c2c1 [Example 50, 5-(2-methoxyethoxymethyl)-3-methyl-N-tetrahydropyran-4-yl-1H-indol-7-amine] | 41 | 68 | 16 | 25 | 0 | 100 | 19 | 86 | 4 | 45 |
| COCCOCc1cc(NC2CCNCC2)c2[nH]c(-c3ccccc3)cc2c1 [Example 64, 5-((2-methoxyethoxy)methyl)-2-phenyl-N-(piperidin-4-yl)-1H-indol-7-amine] | 100 | 100 | 39 | 97 | 78 | 100 | 100 | 100 | 67 | 100 |
| CCOC(=O)c1ccc(NC2CCCCC2)c(N)c1 [Ferrostatin-1, reference compound] | 100 | 100 | 35 | 98 | 100 | 100 | 86 | 100 | 61 | 100 |
